Among the data in patent US20200085791A1, “[(PHENYLSULFONYL)OCTAHYDRO-EPIMINOISOINDOL-YL](1H-1,2,3-TRIAZOL-5-YL)METHANONES” (Bayer Pharma Aktiengesellschaft, priority 2016, published 2020) are IC50 values, retold here.

Each structure is given as a SMILES string.

The target of this test is T1, recombinant human AKR1C3 (Aldo-keto reductase family 1 member C3) (Homo sapiens, UniProt P42330).
T1 construct: GST (cleaved yes); made in house; host or cells: E. coli
T1 sequence (P42330 1-323): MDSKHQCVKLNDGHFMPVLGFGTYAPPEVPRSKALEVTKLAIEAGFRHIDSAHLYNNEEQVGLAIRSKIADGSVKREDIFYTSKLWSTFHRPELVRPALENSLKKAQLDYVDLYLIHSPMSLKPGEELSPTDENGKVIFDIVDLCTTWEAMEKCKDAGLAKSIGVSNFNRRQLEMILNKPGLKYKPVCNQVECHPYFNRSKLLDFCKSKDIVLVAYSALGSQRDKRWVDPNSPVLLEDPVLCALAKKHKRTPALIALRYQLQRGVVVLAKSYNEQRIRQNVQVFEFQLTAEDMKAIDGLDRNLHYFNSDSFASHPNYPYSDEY
The experiment in a line: In Vitro Assay 1: AKR1C3-inhibitory activity (Coumberone to Coumberol fluorescence assay). It is filed as biochemical. The following applies: recombinant enzyme, Coumberone 0.3 μM, NADPH 10 μM, 15 min pre-incubation, 4-parameter fit; average or median values. As for the experimental part:
In Vitro Assay 1: AKR1C3-Inhibitory Activity
The AKR1C3-inhibitory activity of the substances of the present invention was measured in the AKR1C3 assay described in the paragraphs below.
Essentially, the enzyme activity is measured by quantification of the Coumberol from Coumberone (Halim, M., Yee, D. J., and Sames, D., J. AM. CHEM. SOC. 130, 14123-14128 (2008) and Yee, D. J., Balsanek, V., Bauman, D. R., Penning, T. M., and Sames, D., Proc. Natl. Acad. Sci. USA 103, 13304-13309 (2006)). In this test, the increase of the highly fluorescent Coumberol by NADPH- (nicotinamide adenine dinucleotide phosphate)-dependent reduction of the non-fluorescent Coumberone by AKR1C3 can be determined.
The enzyme used was recombinant human AKR1C3 (Aldo-keto reductase family 1 member C3) (GenBank Accession No. NM_003739). This was expressed in E. coli as GST (glutathione S transferase) fusion protein and purified by glutathione Sepharose affinity chromatography. The GST was removed by digestion with thrombin and subsequent size exclusion chromatography (Dufort, I., Rheault, P., Huang, X F., Soucy, P., and Luu-The, V., Endocrinology 140, 568-574 (1999)).
For the assay, 50 nl of a 100-fold concentrated solution of the test substance in DMSO were pipetted into a black low-volume 384-well microtiter plate (Greiner Bio-One, Frickenhausen, Germany), 2.5 μl of a solution of AKR1C3 in assay buffer [50 mM potassium phosphate buffer pH 7, 1 mM DTT, 0.0022% (w/v) Pluronic F-127, 0.01% BSA (w/v) and protease inhibitor cocktail (Complete, EDTA-free Protease Inhibitor Cocktail from Roche)] were added and the mixture was incubated for 15 min to allow pre-binding of the substances to the enzyme prior to the enzyme reaction. The enzyme reaction was then started by addition of 2.5 μl of a solution of NADPH (20 μM→final concentration in 5 μl of assay volume is 10 μM) and Coumberone (0.6 μM→final concentration in 5 μl of assay volume is 0.3 μM) in assay buffer, and the resulting mixture was incubated at […] for the reaction time of typically 90 min. The concentration of the AKR1C3 and the reaction time was adapted to the respective activity of the enzyme preparation and adjusted such that the assay was carried out in the linear range.
Typical AKR1C3 concentrations were in the region of 1 nM. The reaction was stopped by addition of 2.5 μl of a stop solution consisting of the inhibitor EM-1404 [F. Labrie et al. U.S. Pat. No. 6,541,463, 2003] (3 μM→final concentration in 7.5 μl of assay volume is 1 μM). The fluorescence of the Coumberole was then measured at 520 nm (excitation at 380 nm) using a suitable measuring instrument (Pherastar from BMG Labtechnologies). The intensity of the fluorescence was used as a measure of the amount of Coumberole formed and thus of the enzyme activity of AKR1C3. The data were normalized (enzyme reaction without inhibitor—0% inhibition; all other assay components, but no enzyme=100% inhibition).
One may read the IC50 as the concentration needed to halve the response being measured. In the case of `O=C(c1cnn[nH]1)N1C[C@@H]2[C@H](C1)[C@@H]1CC[C@H]2N1S(=O)(=O)c1ccccc1C(F)(F)F` [Example 1, 1H-1,2,3-triazol-5-yl[(3aR,4S,7R,7aS)-8-{[2-(trifluoromethyl)phenyl]sulfonyl}octahydro-2H-4,7-epiminoisoindol-2-yl]methanone], the IC50 was 2 nM.
The result for `O=C(c1c[nH]nn1)N1C[C@@H]2[C@H](C1)[C@@H]1CC[C@H]2N1S(=O)(=O)c1cccc(C(F)(F)F)c1` [Example 2, 1H-1,2,3-triazol-4-yl[(3aR,4S,7R,7aS)-8-{[3-(trifluoromethyl)phenyl]sulfonyl}octahydro-2H-4,7-epiminoisoindol-2-yl]methanone] reads 61 nM.
Then `O=C(c1c[nH]nn1)N1C[C@@H]2[C@H](C1)[C@@H]1CC[C@H]2N1S(=O)(=O)c1cccc(Cl)c1` [Example 3, {(3aR,4S,7R,7aS)-8-[(3-chlorophenyl)sulfonyl]octahydro-2H-4,7-epiminoisoindol-2-yl}(1H-1,2,3-triazol-4-yl)methanone], with 20 nM.
The result for `O=C(c1c[nH]nn1)N1C[C@@H]2[C@H](C1)[C@@H]1CC[C@H]2N1S(=O)(=O)c1cc(Cl)cc(Cl)c1` [Example 4, {(3aR,4S,7R,7aS)-8-[(3,5-dichlorophenyl)sulfonyl]octahydro-2H-4,7-epiminoisoindol-2-yl}(1H-1,2,3-triazol-4-yl)methanone] reads 44 nM.
For `O=C(c1c[nH]nn1)N1C[C@@H]2[C@H](C1)[C@@H]1CC[C@H]2N1S(=O)(=O)c1cccc(F)c1` [Example 5, {(3aR,4S,7R,7aS)-8-[(3-fluorophenyl)sulfonyl]octahydro-2H-4,7-epiminoisoindol-2-yl}(1H-1,2,3-triazol-4-yl)methanone], the IC50 amounted to 26 nM.
As for `O=C(c1c[nH]nn1)N1C[C@@H]2[C@H](C1)[C@@H]1CC[C@H]2N1S(=O)(=O)c1cccc(Cl)c1F` [Example 6, {(3aR,4S,7R,7aS)-8-[(3-chloro-2-fluorophenyl)sulfonyl]octahydro-2H-4,7-epiminoisoindol-2-yl}(1H-1,2,3-triazol-4-yl)methanone], the IC50 is 31 nM.
Then `O=C(c1c[nH]nn1)N1C[C@@H]2[C@H](C1)[C@@H]1CC[C@H]2N1S(=O)(=O)c1cc(F)cc(F)c1` [Example 7, {(3aR,4S,7R,7aS)-8-[(3,5-difluorophenyl)sulfonyl]octahydro-2H-4,7-epiminoisoindol-2-yl}(1H-1,2,3-triazol-4-yl)methanone], with 74 nM; and `O=C(c1c[nH]nn1)N1C[C@@H]2[C@H](C1)[C@@H]1CC[C@H]2N1S(=O)(=O)c1ccccc1Cl` [Example 8, {(3aR,4S,7R,7aS)-8-[(2-chorophenyl)sulfonyl]octahydro-2H-4,7-epiminoisoindol-2-yl}(1H-1,2,3-triazol-4-yl)methanone], with 7 nM; and `O=C(c1c[nH]nn1)N1[C@@H]2CC[C@H]1[C@H]1CN(S(=O)(=O)c3ccccc3Cl)C[C@H]12` [Example 9, {(3aR,4S,7R,7aS)-2-[(2-chlorophenyl)sulfonyl]octahydro-1H-4,7-epiminoisoindol-8-yl}(1H-1,2,3-triazol-4-yl)methanone], with 4 nM.
Then `O=C(c1c[nH]nn1)N1[C@@H]2CC[C@H]1[C@H]1CN(S(=O)(=O)c3cccc(S(F)(F)(F)(F)F)c3)C[C@H]12` [Example 10, [(3aR,4S,7R,7aS)-2-{[3-(pentafluoro-λ^6-sulfanyl)phenyl]sulfonyl}octahydro-1H-4,7-epiminoisoindol-8-yl](1H-1,2,3-triazol-4-yl)methanone], with 121 nM; and `O=C(c1c[nH]nn1)N1C[C@@H]2[C@H](C1)[C@@H]1CC[C@H]2N1S(=O)(=O)c1cccc(S(F)(F)(F)(F)F)c1` [Example 11, [(3aR,4S,7R,7aS)-8-{[3-(pentafluoro-λ^6-sulfanyl)phenyl]sulfonyl}octahydro-2H-4,7-epiminoisoindol-2-yl](1H-1,2,3-triazol-4-yl)methanone], with 69 nM.
